Data published in patent EP2497475A1, “Treatment of laminitis with platelet aggregation inhibitors” (priority 2011, dated 2012).
Like-named read-outs stand apart in the source and are kept apart here.

Test system: laminitis
Format: in vivo, horse

CC(=O)Oc1cc2c(s1)CCN(C(C(=O)C1CC1)c1ccccc1F)C2 (stereo not drawn) [Prasugrel]
Therapy progress (Example 1: 8 year old Shetty-gelding, acute attack, initial 20 mg Prasugrel + 1000 mg acetylsalicylic acid per 60 kg, then 10 mg + 500 mg per 60 kg twice a day, change in feeding, day 2): distinct pulsation in all 4 legs; the horse is more interested in its surrounding | Therapy progress (Example 1: Shetty-gelding, Prasugrel in combination with acetylsalicylic acid, day 3): pulsation in the front legs less, in the back legs the same; horse comes when it is called | 1. Follow-up examination (Example 1: Shetty-gelding, Prasugrel in combination with acetylsalicylic acid, day 4): day 4: pulsation in all 4 legs; horse walks with medium grade turning pain. | 2. Follow-up examination: signs of laminitis (Example 1: Shetty-gelding, Prasugrel in combination with acetylsalicylic acid, day 6): no signs of laminitis | 2. Follow-up examination: hoof ulcers (Example 1: Shetty-gelding, Prasugrel in combination with acetylsalicylic acid, day 8): no hoof ulcers observable | 2. Follow-up examination: recurrence of laminitis (Example 1: Shetty-gelding, after stop of treatment on day 10, change of feeding kept): no more laminitis occurred | Therapy progress (Example 2: 8 year old Shetty-mare, per 60 kg 10 mg Prasugrel + 500 mg acetylsalicylic acid twice a day, change in feeding, from day 3 on): light amelioration | Therapy progress: pulsation (Example 2: Shetty-mare, Prasugrel in combination with acetylsalicylic acid, from day 7 on): no pulsation anymore sensible | Therapy progress: pulsation (Example 2: Shetty-mare, Prasugrel in combination with acetylsalicylic acid, until day 5): pulsation clearly sensible | Follow-up examination (Example 2: Shetty-mare, 1 month later (treatment stopped on day 14)): no pulsation; attitude without pathological findings | Therapy progress (Example 3: 12 year old Pony-gelding, 10 mg Prasugrel + 500 mg acetylsalicylic acid per 60 kg twice a day, change in feeding, from day 2 on): light amelioration | Therapy progress: movement (Example 3: Pony-gelding, Prasugrel in combination with acetylsalicylic acid, day 6): pony walks still restrained | Therapy progress: movement (Example 3: Pony-gelding, Prasugrel in combination with acetylsalicylic acid, day 10): unlimited movement | Therapy progress: pulsation (Example 3: Pony-gelding, Prasugrel in combination with acetylsalicylic acid, from day 4 on): no pulsation anymore sensible | Therapy progress (Example 4: 8 year old Shetty-gelding, acute attack, 10 mg Prasugrel + 500 mg acetylsalicylic acid per 60 kg twice a day, change in feeding, day 3): pony standing in bran, but still heavy pain on all 4 legs | Therapy progress (Example 4: Shetty-gelding, Prasugrel in combination with acetylsalicylic acid, day 5): clear amelioration of its attitude; less pulsation | Therapy progress: pulsation (Example 4: Shetty-gelding, Prasugrel in combination with acetylsalicylic acid, from day 10 on): no pulsation sensible anymore | Follow-up examination: outcome of pregnancy (in vivo): normal birth of a healthy foal
